This note sets out measurements from patent publication US10954300B2, “Use of pentoxifylline with immune checkpoint-blockade therapies for the treatment of melanoma” (THE TRUSTEES OF COLUMBIA UNIVERSITY IN THE CITY OF NEW YORK, priority 2015, dated 2021).

The test system of the assay is B16F1 cells. The assay can be described thus: B16F1 tumor growth in immunodeficient mice. Type of assay: in vivo, RAG1−/− mice. The note with it: PTXF vs PBS. On the procedure:
5×10^4 B16F1 or 5×10^5 CT-26 or BRAF^[…]^-/- cells diluted in sterile PBS1X were injected subcutaneously into the shaved flank of each mouse. For metastasis experiments, 2.5×10^4 B16F10 cells were injected intravenously in the tail vein. […] Anti-PD-1 (RMP1-14), anti-PD-L1 (10F.9G2) and anti-CD8 (YTS.169-4) mAbs were obtained from BioXCell. Rat IgG isotype control was from R&D Systems.

Regarding `CC(=O)CCCCn1c(=O)c2c(ncn2C)n(C)c1=O` [PTXF, 1-(5-oxohexyl)-3,7-dimethylxanthine], the “tumor growth in immunodeficient background” value is listed as “no effect on tumor growth”.
